From US20130203790A1, “SULFUR-CONTAINING COMPOUNDS AS ANTI-PROLIFERATIVE AGENTS” (221076 ONTARIO INC., priority 2011, published 2013) come the findings set out here.

Assay [1] concerns platelets in whole blood (ADP, collagen and TRAP agonists). Put plainly: Platelet inhibition assay in whole blood (impedance platelet aggregometry, Multiplate System). The format is cell-based, human. Conditions: for dose dependence of the response in whole blood / reduction in response to agonists in whole blood (anti-platelet effect): all agonists; for dose dependence of the response in whole blood: 10-100 μM; for reduction in response to agonists in whole blood (anti-platelet effect): compound 10-100 μM. On the procedure: (§1) Platelet function studies were performed simultaneously in both whole blood (using whole blood impedance platelet aggregometry with a Multiplate System) and platelet rich plasma (light transmission aggregometry with a Chrono-Log System). Blood was collected from healthy individuals into vacutainers containing 3.2% (w/v) citrate and was used within 3 hours of collection. Platelet rich plasma (“PRP”) was prepared by centrifugation at 170 g for 15 minutes, and the platelet count measured and adjusted to 250×109/L for use in the light transmission aggregometry studies.
(§2) Each compound was tested at final concentrations of 10, 25, 50 and 100 μM. For each test, the compound was diluted 1/100 into the PRP or whole blood to obtain the final concentrations listed. The PRP or whole blood sample was allowed to stir in the aggregometer for 3 minutes prior to agonist addition. One compound was tested each day.
(§3) As a positive control to verify the sensitivity to inhibition of thrombin receptor agonist peptide (TRAP)-mediated aggregation, TRAP-induced aggregations were also done in the presence of eptifibatide, a glycoprotein IIb/IIIa inhibitor (final concentration of 77 μg/mL in PRP and 65 μg/mL in whole blood).
(§4) Materials used included: • The four channel light transmission aggregometer instrument used for the platelet rich plasma studies was from Chrono-Log Corporation. • The ADP and collagen agonists used for platelet rich plasma studies were from Chrono-Log Corporation. • The four channel Multiplate whole blood impedance platelet aggregometer (IPA) was from DiaPharma Group. • The ADP and collagen agonists used for the whole blood studies were provided by DiaPharma Group. The TRAP agonist used in both the whole blood and PRP studies was also obtained from DiaPharma Group.

In assay [2] the test system is platelets in platelet rich plasma (ADP, collagen and TRAP agonists). Put plainly: Platelet inhibition assay in platelet rich plasma (light transmission aggregometry, Chrono-Log System). It is filed as cell-based, human. The following applies: for inhibitory activity observed in PRP: any agonist tested (ADP, collagen, TRAP), compound 10, 25, 50 and 100 μM. The procedure: as §1, §2, §3, §4

In assay [3] the target is T1, t-PA (degradation of fibrin by tissue plasminogen activator) (Homo sapiens, UniProt P00750).
T1 construct: purchased Genentech
T1 sequence (P00750 36-562): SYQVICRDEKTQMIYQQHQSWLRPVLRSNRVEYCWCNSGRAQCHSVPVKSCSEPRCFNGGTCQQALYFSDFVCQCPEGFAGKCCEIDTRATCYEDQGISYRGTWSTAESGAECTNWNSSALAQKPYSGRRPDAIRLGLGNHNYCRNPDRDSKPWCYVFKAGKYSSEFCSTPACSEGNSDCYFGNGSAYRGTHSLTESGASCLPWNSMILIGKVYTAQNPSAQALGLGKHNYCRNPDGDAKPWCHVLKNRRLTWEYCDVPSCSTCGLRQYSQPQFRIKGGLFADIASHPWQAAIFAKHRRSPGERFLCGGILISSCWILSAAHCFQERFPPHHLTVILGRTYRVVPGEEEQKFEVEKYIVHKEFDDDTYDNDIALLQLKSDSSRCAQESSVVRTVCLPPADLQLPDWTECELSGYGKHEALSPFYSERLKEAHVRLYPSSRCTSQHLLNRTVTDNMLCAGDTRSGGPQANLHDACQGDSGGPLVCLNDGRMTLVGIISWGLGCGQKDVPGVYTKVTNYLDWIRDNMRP
Description: Fibrinolysis assay, microtiter plate turbidity (clot lysis time). Conditions: 500 nM Glu-plasminogen. It is filed as biochemical. On the procedure:
(§5) Coagulation and fibrinolysis were studied simultaneously in a 96-well microtiter plate-based assay system. Varying concentrations of drug in 50 μl buffer or an equivalent volume of saline were added to the wells. To this was added 100 μl of 6 μM fibrinogen, 1 μM Glu-plasminogen and 4 mM CaCl2. Reactions were initiated by addition of 50 μl of buffer containing 2 nM t-PA and 20 nM thrombin. Final concentrations of reagents in the wells were 3 μM fibrinogen, 500 nM Glu-plasminogen, 2 mM CaCl2, 0.05 nM t-PA, 5 nM thrombin and compounds of Formulas (II), (Ill), (IV) or (V) (0-400 μM). As positive controls, hirudin or D-Phe-Pro-Arg chloromethylketone (PPACK) was used in place of the subject compounds. Plates were incubated at 23° C. for 1 h with constant shaking and turbidity was monitored continuously at 405 nm. Clot times and lysis times were determined using instrument soft wave as the times to half maximal increase and decrease in turbidity, respectively. Data are expressed as the mean±SEM of three experiments, each done in triplicate.

The target in assay [4] is T2, thrombin (thrombin-mediated conversion of fibrinogen to fibrin) (Homo sapiens, UniProt P00734).
T2 construct: purchased Enzyme Research Laboratories
Put plainly: Coagulation assay, microtiter plate turbidity (clot formation, thrombin clot time). It is filed as biochemical. On the procedure: as §5, with “[…] […]” for “Final concentrations of reagents in the wells were 3 μM fibrinogen, 500 nM Glu-plasminogen, 2 mM CaCl2, 0.05 nM t-PA, 5 nM thrombin and compounds of Formulas (II), (Ill), (IV) or (V) (0-400 μM). As positive controls, hirudin or D-Phe-Pro-Arg chloromethylketone (PPACK) was used in place of the subject compounds.”

[5] abbreviates: tested at 0-100 nM, 5 nM thrombin.

As to “2-methyldisulfanyl-pyrimidine [2-methyldisulfanyl-pyrimidine (V)]”, the “reduction of platelet response to all agonists in whole blood” value in assay [1] (100 μM) is “approximately 50%”. Moreover, the “dose dependence of the response in whole blood” value (“dose dependence of the response” for short) in assay [1] is reported as “positive dose dependent inhibition”. The “inhibitory activity observed in PRP at highest concentration” value in assay [2] (all agonists, highest concentration tested (100 μM)) is “surprising inhibitory activity”.

For the compound `CSSc1ccccn1` [2-methyldisulfanyl-pyridine (III), 2-methyldisulfanyl-pyridine], in assay [1], the “dose dependence of the response” value is “does not appear to be dose dependent”. Besides, the “reduction in response to all agonists in whole blood” value in assay [1] (not dose dependent (10-100 μM)) is approximately 25%. In addition, in assay [2], the “inhibitory activity observed in PRP” value is given as “no inhibitory activity”.

For the compound `CSSc1ccc(N)cc1` [4-methyldisulfanyl-phenylamine (IV), 4-methyldisulfanyl-phenylamine], in assay [1], the “dose dependence of the response” value is reported as “does not appear to be dose dependent” and the “reduction in response to agonists in whole blood (anti-platelet effect)” value is reported as “Some reduction in response to all agonists”. Moreover, in assay [2], the “inhibitory activity observed in PRP” value is given as “no inhibitory activity”.

For the compound `CSSc1ccncc1` [4-methyldisulfanyl-pyridine (II), 4-methyldisulfanyl-pyridine], in assay [1], the “dose dependence of the response” value is listed as “does not appear to be dose dependent” and the “reduction in response to agonists in whole blood (anti-platelet effect)” value is on record as “reduction in response to all agonists”. For the same compound, the “inhibitory activity observed in PRP” value in assay [2] is reported as “no inhibitory activity”.

In the case of “D-Phe-Pro-Arg chloromethylketone [PPACK]”, the “effect on clot lysis times” value in assay [3] is recorded as “lysis times were shortened”.

As to hirudin, the “effect on clot lysis times” value in assay [3] is listed as “lysis times were shortened”. Also, in assay [4] (compounds of the invention up to 400 μM, hirudin and PPACK as positive controls, 23° C., turbidity at 405 nm), the “effect on clot formation and lysis profiles” value is “inhibited clot formation and lysis”. Also, in assay [4] (setting [5]), the “concentration causing complete inhibition of clotting” value turned out to be 25 nM and the “lowest concentration with measurable effect on clotting” value is 6.25 nM.
